Measured values: patent US6054556A, “Melanocortin receptor antagonists and agonists” (The Arizona Board of Regents on Behalf of the University of …, priority 1997, dated 2000)
Entries after “also recorded” stand apart in the source; their conditions may differ. Where a SMILES comes first, the peptide text is derived from it. Bridges are numbered along the chain shown (N, C = ends). [ ]: non-standard residue; d: D form. 2Nal = N[C@@H](Cc1ccc2ccccc2c1)C(=O)O; d2Nal = N[C@H](Cc1ccc2ccccc2c1)C(=O)O; Nle = CCCC[C@H](N)C(=O)O

Experiments:
Assay type in all cases: cell-based
frog (Rana pipiens) skin = assay: Frog skin bioassay (skin darkening, photoreflectance); settings: for Frog Skin: agonist/antagonist activity: melanin dispersion vs α-MSH
Experimental: Bioassays were performed on frog (Rana pipiens) skin according to published protocols [see J. Med. Chem. 30:2126 (1987) and Gen. Comp. Endocrinol. 55:104 (1984)]. Briefly, in these assays the darkening of skin due to dispersion of melanin granules within the melanocytes in response to the melanotropin peptides according to the present invention is measured by photoreflectance methods. The agonist potency of each peptide was determined from the dose response curves comparing the skin darkening with that produced by the native hormone, α-MSH. Prolongation of the biological response was measured by continued monitoring of the melanosome dispersion for up to 3 hours following removal of the peptide in the bathing solution through washing of the skins. The antagonistic activity profile was measured by pre-incubating the skins for 1 hour in various concentrations of the antagonist. After pre-incubation, a known concentration of α-MSH was added and its melanotropic activity determined. Dose-response curves generated for α-MSH in this manner were used to determine the pA2 values (representing the -log10 of the average molar concentration of the antagonist that will reduce the response of α-MSH (agonist) from 2X units to X units) [see Br. J. Pharmacol. 2:189 (1947)].

hMC3-R = biological target: T1, hMC3-R (Homo sapiens, UniProt P41968); assay: cAMP-dependent pCRE/β-galactosidase reporter assay in Clonal 293 cells expressing human MC3-R; settings: for hMC3-R: agonist/antagonist activity: cAMP/β-galactosidase
T1 construct: expressed in transfected cells
Experimental: (§1) The peptides according to the present invention were assayed for agonist and antagonist activity using cloned hMC1, mMC1-R, hMC3-R, hMC4-R and mMC5-R transfected into the stable cell line Clonal 293. Transduction was measured by its affect on cAMP production using the following method.
(§2) Clonal 293 cell lines expressing the human MSH receptor, human MC3-R, human MC4-R, and mouse MC5-R were transfected with a pCRE/β-galactosidase construct using a CaPO4 method [see Mol. Cell. Biol. 7:2745 (1987)]. 4 μg of pCRE/β-galactosidase DNA was used for transfection of a 10 cm dish of cells. After 15 to 24 hours post-transfection, cells were split into 96-well plates with 20,000 to 30,000 cells per well, and incubated at 37° C. in a 5% CO2 incubator until 48 hours post-transfection.Cells were then stimulated with different peptides diluted in stimulation medium (Dulbecco's modified Eagle's medium containing 0.1 mg/ml bovine serum albumin and 0.1 mM isobutylmethylxanthine) for 6 hours. Agonist activity was measured by stimulating cells with various concentrations of peptide, and antagonist activity was measured by stimulating MC3 and MC4 receptor cell lines with […]. After stimulation, cells were lysed in 50 μl lysis buffer (250 mM Tris-HCl, pH 8.0, 0.1% Triton X-100), frozen and thawed, and then assayed for b-galactosidase activity.

hMC4-R = biological target: T2, hMC4-R (Homo sapiens, UniProt P32245); assay: cAMP-dependent pCRE/β-galactosidase reporter assay in Clonal 293 cells expressing human MC4-R; settings: for hMC4-R: agonist/antagonist activity: cAMP/β-galactosidase
T2 construct: expressed in transfected cells
Experimental: as §1, §2

mMC5-R = biological target: T3, mMC5-R (Mus musculus, UniProt P41149); assay: cAMP-dependent pCRE/β-galactosidase reporter assay in Clonal 293 cells expressing mouse MC5-R; settings: for mMC5-R: agonist/antagonist activity: cAMP/β-galactosidase
T3 construct: expressed in transfected cells
Experimental: Transduction was measured by its affect on cAMP production using the following method.
as §2, with “4” for “Clonal 293 cell lines expressing the human MSH receptor, human MC3-R, human MC4-R, and mouse MC5-R were transfected with a pCRE/β-galactosidase construct using a CaPO4 method [see Mol. Cell. Biol. 7:2745 (1987)]. 4”

T1 sequence (P41968 whole entry): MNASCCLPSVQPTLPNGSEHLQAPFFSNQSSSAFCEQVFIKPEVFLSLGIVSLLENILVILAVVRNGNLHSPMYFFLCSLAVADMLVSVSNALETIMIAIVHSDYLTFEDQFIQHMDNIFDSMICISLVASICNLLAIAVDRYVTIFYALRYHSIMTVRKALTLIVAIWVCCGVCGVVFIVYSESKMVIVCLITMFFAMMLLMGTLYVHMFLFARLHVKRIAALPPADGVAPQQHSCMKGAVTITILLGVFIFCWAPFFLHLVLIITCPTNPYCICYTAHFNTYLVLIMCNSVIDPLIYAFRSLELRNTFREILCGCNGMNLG
T2 sequence (P32245 whole entry): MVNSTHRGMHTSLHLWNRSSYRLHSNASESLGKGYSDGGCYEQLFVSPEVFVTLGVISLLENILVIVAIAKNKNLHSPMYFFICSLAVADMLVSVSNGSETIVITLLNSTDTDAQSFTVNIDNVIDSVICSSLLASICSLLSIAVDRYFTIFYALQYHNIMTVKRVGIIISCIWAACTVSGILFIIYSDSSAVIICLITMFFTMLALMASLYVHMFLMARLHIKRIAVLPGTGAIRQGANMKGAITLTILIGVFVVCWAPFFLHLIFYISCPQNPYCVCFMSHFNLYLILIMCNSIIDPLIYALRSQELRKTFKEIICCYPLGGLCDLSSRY
T3 sequence (P41149 whole entry): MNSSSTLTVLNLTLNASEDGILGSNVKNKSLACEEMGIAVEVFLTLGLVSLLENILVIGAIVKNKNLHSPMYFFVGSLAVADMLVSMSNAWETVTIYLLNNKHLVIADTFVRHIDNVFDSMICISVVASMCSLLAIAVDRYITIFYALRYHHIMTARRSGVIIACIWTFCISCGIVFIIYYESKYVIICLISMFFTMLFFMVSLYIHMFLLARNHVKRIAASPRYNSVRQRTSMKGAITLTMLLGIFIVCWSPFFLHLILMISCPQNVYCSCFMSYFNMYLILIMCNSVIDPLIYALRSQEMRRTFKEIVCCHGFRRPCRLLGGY

Molecule | Frog Skin: reversibility of antagonism (frog (Rana pipiens) skin) | Frog Skin: agonist/antagonist activity (frog (Rana pipiens) skin) | hMC3-R: potency range (hMC3-R) | hMC3-R: agonist/antagonist activity (hMC3-R) | hMC4-R: potency range (hMC4-R) | hMC4-R: agonist/antagonist activity (hMC4-R) | mMC5-R: potency range (mMC5-R) | mMC5-R: agonist/antagonist activity (mMC5-R)
CCCC[C@H](NC(C)=O)C(=O)N[C@H]1CC(=O)NCCCC[C@@H](C(N)=O)NC(=O)[C@H](Cc2ccc3ccccc3c2)NC(=O)[C@H](CCCNC(=N)N)NC(=O)[C@@H](Cc2ccc3ccccc3c2)NC(=O)[C@H](Cc2c[nH]c3ccccc23)NC1=O [Compound 1, Ac-Nle-c[Asp-Trp-D-Nal(2')-Arg-Nal(2')-Lys]-NH2] (Ac-[Nle]DW[d2Nal]R[2Nal]K-NH2; lactam 2-7) | Irreversible | Antagonist | – | – | – | – | – | –
CCCC[C@H](NC(C)=O)C(=O)N[C@H]1CC(=O)NCCCC[C@@H](C(N)=O)NC(=O)[C@H](Cc2ccc3ccccc3c2)NC(=O)[C@H](CCCNC(=N)N)NC(=O)[C@@H](Cc2ccccc2)NC(=O)[C@H](Cc2c[nH]c3ccccc23)NC1=O [Compound 10, Ac-Nle-c[Asp-Trp-D-Phe-Arg-Nal(2')-Lys]-NH2] (Ac-[Nle]DW[dF]R[2Nal]K-NH2; lactam 2-7) | – | potent agonist; also recorded: Full Agonist | – | – | – | – | – | –
CCCC[C@H](NC(C)=O)C(=O)N[C@H]1CC(=O)NCCCC[C@@H](C(N)=O)NC(=O)[C@H](Cc2ccc3ccccc3c2)NC(=O)[C@H](CCCNC(=N)N)NC(=O)[C@@H](Cc2ccc3ccccc3c2)NC(=O)[C@H](Cc2c[nH]cn2)NC1=O [Compound 11, Ac-Nle-c[Asp-His-D-Nal(2')-Arg-Nal(2')-Lys]-NH2] | – | Antagonist -- Partial | – | – | – | – | – | –
CCCC[C@H](NC(C)=O)C(=O)N[C@H]1CC(=O)NCCCC[C@@H](C(N)=O)NC(=O)[C@H](Cc2c[nH]c3ccccc23)NC(=O)[C@H](CCCC)NC(=O)[C@@H](Cc2ccc3ccccc3c2)NC(=O)[C@H](Cc2c[nH]cn2)NC1=O [Compound 13, Ac-Nle-c[Asp-His-D-Nal(2')-Nle-Trp-Lys]-NH2] | – | Agonist | – | – | – | – | – | –
CCCC[C@H](NC(C)=O)C(=O)N[C@H]1CC(=O)NCCCC[C@@H](C(N)=O)NC(=O)[C@H](Cc2c[nH]c3ccccc23)NC(=O)[C@H](CCCC)NC(=O)[C@@H](Cc2ccc3ccccc3c2)NC(=O)[C@H](Cc2c[nH]c3ccccc23)NC1=O [Compound 14, Ac-Nle-c[Asp-Trp-D-Nal(2')-Nle-Trp-Lys]-NH2] (Ac-[Nle]DW[d2Nal][Nle]WK-NH2; lactam 2-7) | – | Antagonist | – | – | – | – | – | –
CCCC[C@H](NC(C)=O)C(=O)N[C@H]1CC(=O)NCCCC[C@@H](C(N)=O)NC(=O)[C@H](Cc2c[nH]c3ccccc23)NC(=O)[C@H](Cc2ccc3ccccc3c2)NC(=O)[C@@H](Cc2ccccc2)NC(=O)[C@H](Cc2c[nH]cn2)NC1=O [Compound 15, Ac-Nle-c[Asp-His-D-Phe-Nal(2')-Trp-Lys]-NH2] | – | Agonism | – | – | – | – | – | –
CCCC[C@H](NC(C)=O)C(=O)N[C@H]1CC(=O)NCCCC[C@@H](C(N)=O)NC(=O)[C@@H](Cc2ccc3ccccc3c2)NC(=O)[C@H](CCCNC(=N)N)NC(=O)[C@@H](Cc2ccc3ccccc3c2)NC(=O)[C@H](Cc2c[nH]cn2)NC1=O [Compound 16, Ac-Nle-c[Asp-His-D-Nal(2')-Arg-D-Nal(2')-Lys]-NH2] | – | Agonism | – | – | – | – | – | –
Ac-Nle-c[Asp-His(1-Me)-D-Nal(2')-Arg-Nal(2')-Lys]-NH2 [Compound 5] | Irreversible | Antagonist | nM range | Antagonist | nM range | Antagonist | pM range | Antagonist
Ac-Nle-c[Asp-His(1-Me)-D-Nal(2')-Arg-Trp-Lys]-NH2 [Compound 2] | Irreversible | Antagonist | nM range | Antagonist | nM range | Antagonist | pM range | Antagonist
Ac-Nle-c[Asp-His(3-Me)-D-Nal(2')-Arg-Nal(2')-Lys]-NH2 [Compound 6] | Irreversible | Antagonist | nM range | Antagonist | nM range | Antagonist | pM range | Antagonist
Ac-Nle-c[Asp-His(3-Me)-D-Nal(2')-Arg-Trp-Lys]-NH2 [Compound 3] | Irreversible | Antagonist | nM range | Antagonist | nM range | Antagonist | pM range | Antagonist
